Experimental data as given in patent publication EP1243581A1, “Pyridinium compounds useful for the treatment of AGE-related diseases” (Torrent Pharmaceuticals Ltd, priority 2001, dated 2002).

Assays:
AGE-BSA = biological target: T1, AGE-BSA (Bos taurus, UniProt P02769); experiment: In-vitro screening for AGE-breaking activity (ELISA on 16 weeks AGE-BSA); assay type: biochemical, bovine; conditions: Concentration 5 mM; 10µg/ml 16 weeks AGE-BSA, 37°C, 24 hours
T1 construct: Bovine serum albumin (fraction V) (BSA); from tissue; host or cells: bovine serum (fraction V albumin)
T1 sequence (P02769 25-607): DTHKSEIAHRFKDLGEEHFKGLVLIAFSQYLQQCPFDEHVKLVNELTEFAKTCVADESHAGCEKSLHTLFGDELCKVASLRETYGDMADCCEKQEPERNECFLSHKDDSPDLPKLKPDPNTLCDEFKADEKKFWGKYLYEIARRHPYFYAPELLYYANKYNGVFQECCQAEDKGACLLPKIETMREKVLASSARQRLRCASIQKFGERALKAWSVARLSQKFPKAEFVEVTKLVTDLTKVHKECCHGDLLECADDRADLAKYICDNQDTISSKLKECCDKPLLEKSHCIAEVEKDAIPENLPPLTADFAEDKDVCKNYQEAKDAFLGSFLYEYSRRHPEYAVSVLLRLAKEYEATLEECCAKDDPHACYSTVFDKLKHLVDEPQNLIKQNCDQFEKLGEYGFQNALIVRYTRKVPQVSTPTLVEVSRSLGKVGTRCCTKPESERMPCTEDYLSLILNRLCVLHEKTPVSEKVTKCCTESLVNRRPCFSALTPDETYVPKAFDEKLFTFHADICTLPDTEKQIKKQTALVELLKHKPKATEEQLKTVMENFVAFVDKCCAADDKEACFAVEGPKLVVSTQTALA
Experimental: • Materials: • Bovine serum albumin (fraction V) (BSA) • Glucose, analytical grade • Phosphate buffered saline (PBS) • Equipment: • Microplate ELISA Reader - Spectramax Plus (Molecular Devices, USA) • Microplate washer, (Bio -Tec Instruments, USA) • pH meter Methods of experiment: Elisa (Enzyme Linked Immunosorbent Assay) 160 mg/ml of protein, bovine serum albumin, BSA and 1.6M glucose sugar were dissolved in phosphate buffered saline, PBS. Sodium azide was added at 0.02% concentration as a preservative. The solution was filtered asceptically through a 0.22 µM filter and kept for aging at 37°C for 16 weeks. After 16 weeks the solution was dialyzed against PBS, aliquoted and stored at - 20°C.
To determine the AGE breaking activity, 10µg/ml of the 16 weeks AGE-BSA was incubated with different concentrations of the test compounds at 37°C for 24 hours and AGE breaking activity of the test compounds by ELISA was determined. […] Different concentrations of 16 weeks AGE-BSA were coated on a microtitre plate as standard. Each concentration is coated in triplicates. • 2. The test samples were coated on microtitre plate at a concentration of 5 ng. to 20 ng per well in triplicates. • 3. The plate was incubated at 37°C for one hour. • 4. After incubation the plate was washed with PBST (PBS with 0.05% Tween 20). • 5. Blocking with 5% skimmed milk in PBS at 37°C for one hour was done. • 6. The plate was washed with PBST. • 7. Primary antibody against AGE-BSA was added and the plate is incubated at 37°C for one hour. • 8. The plate was washed with PBST • 9. Secondary antibody anti rabbit HRPO (Horse-Radish Per Oxidase) conjugate was added and the plate is incubated at 37°C for one hour. • 10. The plate was washed with PBST. • 11. Colour development with OPD (orthophenylenediamine dihydrochloride) and hydrogen peroxide was done. • 12. OD (optical density) at (450nm reading - 620nm reading) was measured after incubation at 37°C for 15 minutes with Microplate ELISA Reader.
The breaker activity of the compounds were determined by the following formula: % Breaker activity =(OD450-620 Control - OD450-620 Test)/(OD450-620 Control)x 100 [formula]

rat model of diabetes [1] = experiment: In-vivo screening: creatinine clearance in STZ-induced diabetic rats; conditions: b.i.d., 8 weeks, after 12 weeks of STZ diabetes, versus untreated diabetic group
Experimental: (§1) The test compounds were studied for their beneficial effects on diabetic neuropathy and nephropathy in a rat model of diabetes. The rats were divided into three groups. The first group consisted of age matched untreated non-diabetic animals. The second group consisted of diabetic controls and the third group was the diabetic group treated with the test compound. Each treatment group had its own corresponding control and diabetic groups. The second and third groups were treated with Streptozotocin (STZ) at 60mg/kg for the induction of diabetes. After completion of 12 weeks of diabetes the rats were treated with the test compound daily (doses shown in table) for a period of 8 weeks. At the end of the treatment the creatinine clearances and nerve conduction velocities (NCV) of the animals were estimated. Creatinine clearances of the rats were estimated as follows Creatinine clearance =(Concentration of creatinine in the urine)/(Concentration of creatinine in the blood.)x ml urine passed/minute [formula]
The creatinine clearance in untreated diabetic group was compared with the treated group and the percentage improvements are shown in the Table 3.

rat model of diabetes [2] = experiment: In-vivo screening: nerve conduction velocity in STZ-induced diabetic rats; conditions: b.i.d., 8 weeks, after 12 weeks of STZ diabetes
Experimental: as §1, with “Creatinine clearances of the rats were estimated as follows Creatinine clearance =(Concentration of creatinine in the urine)/(Concentration of creatinine in the blood.)x ml urine passed/minute [formula]” left out
The nerve conduction velocity was measured using a modified method of Biro et al 1998. […] Electromyograms (EMG's) recorded from the plantar muscles consisted of two components: (l) the short latency direct motor response (M) and the monosynaptically elicited long-latency sensory response (H, Hoffmann reflex). Latency and the duration of the M responses were measured and the motor nerve conduction velocity (MNCV) was calculated as follows : MNCV =(Distance between the sciatic and tibial stimulation points.)/(Differences of the latency for Msciatic and Mtibial) [formula] […]

% breakage of AGE-BSA crosslinks at 5000 µM (AGE-BSA)	SMILES	% Increase in creatinine clearance (rat model of diabetes [1]; 6.0 mg/kg)	% Increase in the NCV (rat model of diabetes [2]; 6.0 mg/kg)	% Increase in creatinine clearance (rat model of diabetes [1]; 7.5 mg/kg)	% Increase in the NCV (rat model of diabetes [2]; 7.5 mg/kg)
22.8%	O=C(C[n+]1cccc(C(=O)NNC(=O)c2ccc[n+](CC(=O)NC3CC3)c2)c1)NC1CC1 [Compound 21, N,N'-bis-[3-carbonyl-1-(2-cyclopropylamino-2-oxoethyl)pyridinium] hydrazine dichloride]	5.0%	58.4%	–	–
20%	O=C(NNC(=O)c1ccc[n+](CC(=O)c2cccs2)c1)c1ccc[n+](CC(=O)c2cccs2)c1 [Compound 15, N,N'-bis [3-carbonyl-1-(2-thien-2'-yl-2-oxoethyl)pyridinium] hydrazine dichloride]	–	–	103.0%	60.0%
